In patent US20260356819A1, “OXOISOINDOLINYL-SUBSTITUTED […] DERIVATIVE AND USE THEREOF” (GLUETACS THERAPEUTICS (SHANGHAI) CO., LTD., priority 2023, published 2026):

Columns and labels:
Format in all cases: cell-based
Settings in all cases: compounds at 50 nM and 500 nM
WEE1 = target: T1, WEE1 (Homo sapiens, UniProt P30291+Q96SW2); assay: Western blot degradation of WEE1 in hPBMCs (24 h)
T1 construct: The supernatant was aspirated as the extracted total cell protein; endogenous in cells; host or cells: human peripheral blood mononuclear cells (hPBMCs)
T1 sequence (P30291 whole entry): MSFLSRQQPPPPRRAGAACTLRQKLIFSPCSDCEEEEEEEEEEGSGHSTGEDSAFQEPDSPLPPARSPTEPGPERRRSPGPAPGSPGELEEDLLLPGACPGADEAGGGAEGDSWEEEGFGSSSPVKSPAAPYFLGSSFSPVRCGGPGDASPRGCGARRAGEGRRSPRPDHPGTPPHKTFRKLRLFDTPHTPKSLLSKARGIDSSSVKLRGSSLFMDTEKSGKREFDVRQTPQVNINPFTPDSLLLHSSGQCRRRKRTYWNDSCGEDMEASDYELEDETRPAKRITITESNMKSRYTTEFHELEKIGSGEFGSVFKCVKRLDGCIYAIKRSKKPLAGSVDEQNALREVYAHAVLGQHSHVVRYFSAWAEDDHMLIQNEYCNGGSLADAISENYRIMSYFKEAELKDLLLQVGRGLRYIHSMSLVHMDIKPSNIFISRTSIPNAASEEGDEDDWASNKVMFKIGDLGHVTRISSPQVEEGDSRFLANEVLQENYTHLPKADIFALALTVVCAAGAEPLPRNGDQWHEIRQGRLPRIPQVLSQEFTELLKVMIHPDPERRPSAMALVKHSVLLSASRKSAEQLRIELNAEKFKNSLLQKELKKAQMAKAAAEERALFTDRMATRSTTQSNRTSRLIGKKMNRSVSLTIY
T1 sequence (Q96SW2 whole entry): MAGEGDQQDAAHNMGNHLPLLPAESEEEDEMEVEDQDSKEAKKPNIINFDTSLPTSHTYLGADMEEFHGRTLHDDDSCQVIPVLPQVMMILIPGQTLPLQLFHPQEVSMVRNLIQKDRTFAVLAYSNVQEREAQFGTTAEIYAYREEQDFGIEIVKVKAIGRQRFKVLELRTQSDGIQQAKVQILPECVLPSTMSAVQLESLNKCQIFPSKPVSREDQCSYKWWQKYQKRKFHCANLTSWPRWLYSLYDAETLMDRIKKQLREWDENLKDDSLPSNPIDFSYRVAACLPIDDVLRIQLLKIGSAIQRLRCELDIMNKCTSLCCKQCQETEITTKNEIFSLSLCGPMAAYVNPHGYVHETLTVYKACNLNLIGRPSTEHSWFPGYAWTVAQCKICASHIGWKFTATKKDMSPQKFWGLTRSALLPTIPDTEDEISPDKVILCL
T1 sequence (Q16531 whole entry partner): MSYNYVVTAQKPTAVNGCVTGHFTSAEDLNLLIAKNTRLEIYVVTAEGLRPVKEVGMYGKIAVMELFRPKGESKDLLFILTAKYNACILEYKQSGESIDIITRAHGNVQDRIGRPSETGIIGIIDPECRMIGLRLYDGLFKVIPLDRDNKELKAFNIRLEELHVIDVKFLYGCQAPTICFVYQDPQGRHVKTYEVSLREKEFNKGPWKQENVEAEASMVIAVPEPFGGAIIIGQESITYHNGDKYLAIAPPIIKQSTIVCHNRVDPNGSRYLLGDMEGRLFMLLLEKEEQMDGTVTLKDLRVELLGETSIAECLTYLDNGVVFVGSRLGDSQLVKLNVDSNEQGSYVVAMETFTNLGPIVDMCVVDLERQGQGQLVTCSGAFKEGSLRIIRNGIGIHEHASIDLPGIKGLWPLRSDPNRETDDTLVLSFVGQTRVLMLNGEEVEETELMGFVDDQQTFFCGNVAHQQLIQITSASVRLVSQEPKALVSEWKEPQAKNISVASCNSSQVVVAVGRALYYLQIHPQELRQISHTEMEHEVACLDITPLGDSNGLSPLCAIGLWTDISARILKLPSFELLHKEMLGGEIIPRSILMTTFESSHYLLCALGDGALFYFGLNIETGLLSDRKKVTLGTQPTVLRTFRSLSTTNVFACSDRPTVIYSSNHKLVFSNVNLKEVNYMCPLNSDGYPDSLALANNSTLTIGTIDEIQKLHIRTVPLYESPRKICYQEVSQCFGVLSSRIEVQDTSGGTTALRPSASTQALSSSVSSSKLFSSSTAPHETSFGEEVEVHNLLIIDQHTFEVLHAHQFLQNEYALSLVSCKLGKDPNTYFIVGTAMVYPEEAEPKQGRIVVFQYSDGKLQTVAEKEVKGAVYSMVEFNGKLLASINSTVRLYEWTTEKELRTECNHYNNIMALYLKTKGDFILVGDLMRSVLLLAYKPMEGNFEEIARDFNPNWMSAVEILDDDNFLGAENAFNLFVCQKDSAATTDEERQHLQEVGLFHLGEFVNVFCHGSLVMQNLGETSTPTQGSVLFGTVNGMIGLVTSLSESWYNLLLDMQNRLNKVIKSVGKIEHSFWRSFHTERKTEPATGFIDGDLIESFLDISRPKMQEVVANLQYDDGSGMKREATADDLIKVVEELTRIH
Outline: (§1)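 In this assay, each compound was incubated with human PBMCs for 24 h at 50 nM and 500 nM. Target levels were measured by Western blot densitometry normalised to an internal control.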

IKZF1 = target: T2, IKZF1 (Homo sapiens, UniProt Q13422+Q96SW2); assay: Western blot degradation of IKZF1 in hPBMCs (24 h)
T2 construct: The supernatant was aspirated as the extracted total cell protein; endogenous in cells; host or cells: human peripheral blood mononuclear cells (hPBMCs)
T2 sequence (Q13422 whole entry): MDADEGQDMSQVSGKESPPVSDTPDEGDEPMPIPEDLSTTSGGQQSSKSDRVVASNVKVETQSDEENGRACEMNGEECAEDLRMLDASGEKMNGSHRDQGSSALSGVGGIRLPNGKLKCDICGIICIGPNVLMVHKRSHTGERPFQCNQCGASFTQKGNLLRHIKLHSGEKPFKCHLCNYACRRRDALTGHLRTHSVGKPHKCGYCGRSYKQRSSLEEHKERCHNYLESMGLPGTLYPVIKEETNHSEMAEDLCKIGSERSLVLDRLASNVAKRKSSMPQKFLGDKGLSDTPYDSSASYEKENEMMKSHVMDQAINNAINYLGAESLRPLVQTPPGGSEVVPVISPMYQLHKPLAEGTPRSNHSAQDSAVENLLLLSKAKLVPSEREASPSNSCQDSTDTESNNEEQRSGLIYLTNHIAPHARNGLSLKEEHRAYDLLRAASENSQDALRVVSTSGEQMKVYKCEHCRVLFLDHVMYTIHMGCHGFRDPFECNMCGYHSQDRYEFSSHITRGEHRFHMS
T2 sequence (Q96SW2 whole entry): as the sequence (Q96SW2 whole entry) above
T2 sequence (Q16531 whole entry partner): as the sequence (Q16531 whole entry partner) above
Outline: as §1

IKZF2 = target: T3, IKZF2 (Homo sapiens, UniProt Q96SW2+Q9UKS7); assay: Western blot degradation of IKZF2 in hPBMCs (24 h)
T3 construct: The supernatant was aspirated as the extracted total cell protein; endogenous in cells; host or cells: human peripheral blood mononuclear cells (hPBMCs)
Outline: as §1

IKZF3 = target: T4, IKZF3 (Homo sapiens, UniProt Q96SW2+Q9UKT9); assay: Western blot degradation of IKZF3 in hPBMCs (24 h)
T4 construct: The supernatant was aspirated as the extracted total cell protein; endogenous in cells; host or cells: human peripheral blood mononuclear cells (hPBMCs)
T4 sequence (Q9UKT9 whole entry): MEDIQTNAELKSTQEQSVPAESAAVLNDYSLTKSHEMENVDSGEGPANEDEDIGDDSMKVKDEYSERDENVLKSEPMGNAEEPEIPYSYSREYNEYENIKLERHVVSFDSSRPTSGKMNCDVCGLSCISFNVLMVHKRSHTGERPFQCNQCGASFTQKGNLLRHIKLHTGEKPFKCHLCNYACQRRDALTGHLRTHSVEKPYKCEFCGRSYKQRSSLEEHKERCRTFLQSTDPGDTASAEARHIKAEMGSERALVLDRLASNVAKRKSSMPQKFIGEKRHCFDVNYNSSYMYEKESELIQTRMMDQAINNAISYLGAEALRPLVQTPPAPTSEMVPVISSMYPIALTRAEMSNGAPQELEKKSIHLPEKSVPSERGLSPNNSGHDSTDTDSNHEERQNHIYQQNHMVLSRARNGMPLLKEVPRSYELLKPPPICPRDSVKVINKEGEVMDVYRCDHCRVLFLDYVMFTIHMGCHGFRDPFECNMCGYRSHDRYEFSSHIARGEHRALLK
T4 sequence (Q96SW2 whole entry): as the sequence (Q96SW2 whole entry) above
T4 sequence (Q16531 whole entry partner): as the sequence (Q16531 whole entry partner) above
Outline: as §1

CK1α = target: T5, CK1α (Homo sapiens, UniProt P48729+Q96SW2); assay: Western blot degradation of CK1α in hPBMCs (24 h)
T5 construct: The supernatant was aspirated as the extracted total cell protein; endogenous in cells; host or cells: human peripheral blood mononuclear cells (hPBMCs)
T5 sequence (P48729 whole entry): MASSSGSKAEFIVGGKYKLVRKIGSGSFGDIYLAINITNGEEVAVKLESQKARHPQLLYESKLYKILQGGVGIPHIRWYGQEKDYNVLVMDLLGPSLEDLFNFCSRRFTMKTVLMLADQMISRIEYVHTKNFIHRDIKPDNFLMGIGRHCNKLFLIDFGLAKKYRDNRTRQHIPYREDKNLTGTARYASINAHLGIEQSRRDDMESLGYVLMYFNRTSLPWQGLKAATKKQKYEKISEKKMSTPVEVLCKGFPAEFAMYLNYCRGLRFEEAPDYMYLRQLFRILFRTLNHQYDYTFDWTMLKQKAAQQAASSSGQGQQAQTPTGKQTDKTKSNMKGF
T5 sequence (Q96SW2 whole entry): as the sequence (Q96SW2 whole entry) above
T5 sequence (Q16531 whole entry partner): as the sequence (Q16531 whole entry partner) above
Outline: as §1

GSPT1 = target: T6, GSPT1 (Homo sapiens, UniProt P15170+Q96SW2); assay: Western blot degradation of GSPT1 in hPBMCs (24 h)
T6 construct: The supernatant was aspirated as the extracted total cell protein; endogenous in cells; host or cells: human peripheral blood mononuclear cells (hPBMCs)
T6 sequence (P15170 whole entry): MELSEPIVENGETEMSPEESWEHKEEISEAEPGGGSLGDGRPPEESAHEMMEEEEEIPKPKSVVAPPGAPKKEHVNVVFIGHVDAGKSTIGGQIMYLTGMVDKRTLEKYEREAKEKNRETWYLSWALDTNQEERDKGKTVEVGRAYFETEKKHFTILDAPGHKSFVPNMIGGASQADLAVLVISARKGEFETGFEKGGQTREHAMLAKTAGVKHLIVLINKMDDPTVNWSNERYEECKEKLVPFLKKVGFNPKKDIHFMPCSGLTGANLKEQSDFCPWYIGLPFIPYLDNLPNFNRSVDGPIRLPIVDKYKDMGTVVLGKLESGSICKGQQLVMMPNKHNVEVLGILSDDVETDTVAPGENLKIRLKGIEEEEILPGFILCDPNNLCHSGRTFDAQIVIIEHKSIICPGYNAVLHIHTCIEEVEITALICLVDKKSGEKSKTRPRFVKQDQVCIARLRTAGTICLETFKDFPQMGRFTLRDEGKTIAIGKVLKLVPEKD
T6 sequence (Q96SW2 whole entry): as the sequence (Q96SW2 whole entry) above
T6 sequence (Q16531 whole entry partner): as the sequence (Q16531 whole entry partner) above
Outline: as §1

## O=C1CCN(N2Cc3cc(CN4CCN(c5ncnc6sc(Br)cc56)CC4)ccc3C2=O)C(=O)N1 [GT-08063, 1-(5-((4-(6-bromothieno[2,3-d]pyrimidin-4-yl)piperazin-1-yl)methyl)-1-oxoisoindolin-2-yl)dihydropyrimidine-2,4(1H,3H)-dione]
WEE1
  WEE1 substrate protein remaining %: B (80%< substrate protein remaining % ≤100%)
IKZF1
  IKZF1 substrate protein remaining %: B (80%< substrate protein remaining % ≤100%)
IKZF2
  IKZF2 substrate protein remaining %: A (0% ≤ substrate protein remaining % ≤80%)
IKZF3
  IKZF3 substrate protein remaining %: A (0% ≤ substrate protein remaining % ≤80%)
CK1α
  CK1α substrate protein remaining %: B (80%< substrate protein remaining % ≤100%)
GSPT1
  GSPT1 substrate protein remaining %: B (80%< substrate protein remaining % ≤100%)

## O=C1CCN(N2Cc3cc(CN4CCN(c5ncnc6sc(-c7ccccc7)cc56)CC4)ccc3C2=O)C(=O)N1 [GT-08064, 1-(1-oxo-5-((4-(6-phenylthieno[2,3-d]pyrimidin-4-yl)piperazin-1-yl)methyl)isoindolin-2-yl)dihydropyrimidine-2,4(1H,3H)-dione]
WEE1
  WEE1 substrate protein remaining %: B (80%< substrate protein remaining % ≤100%)
IKZF1
  IKZF1 substrate protein remaining %: B (80%< substrate protein remaining % ≤100%)
IKZF2
  IKZF2 substrate protein remaining %: A (0% ≤ substrate protein remaining % ≤80%)
IKZF3
  IKZF3 substrate protein remaining %: B (80%< substrate protein remaining % ≤100%)
CK1α
  CK1α substrate protein remaining %: B (80%< substrate protein remaining % ≤100%)
GSPT1
  GSPT1 substrate protein remaining %: B (80%< substrate protein remaining % ≤100%)

## O=C1CCN(N2Cc3cc(CN4CCN(c5ncnc6scc(-c7ccccc7)c56)CC4)ccc3C2=O)C(=O)N1 [GT-08065, 1-(1-oxo-5-((4-(5-phenylthieno[2,3-d]pyrimidin-4-yl)piperazin-1-yl)methyl)isoindolin-2-yl)dihydropyrimidine-2,4(1H,3H)-dione]
WEE1
  WEE1 substrate protein remaining %: B (80%< substrate protein remaining % ≤100%)
IKZF1
  IKZF1 substrate protein remaining %: B (80%< substrate protein remaining % ≤100%)
IKZF2
  IKZF2 substrate protein remaining %: A (0% ≤ substrate protein remaining % ≤80%)
IKZF3
  IKZF3 substrate protein remaining %: B (80%< substrate protein remaining % ≤100%)
CK1α
  CK1α substrate protein remaining %: B (80%< substrate protein remaining % ≤100%)
GSPT1
  GSPT1 substrate protein remaining %: B (80%< substrate protein remaining % ≤100%)

## Cc1nc(N2CCN(Cc3ccc4c(c3)CN(N3CCC(=O)NC3=O)C4=O)CC2)c2c(-c3ccccc3)csc2n1 [GT-08066, 1-(5-((4-(2-methyl-5-phenylthieno[2,3-d]pyrimidin-4-yl)piperazin-1-yl)methyl)-1-oxoisoindolin-2-yl)dihydropyrimidine-2,4(1H,3H)-dione]
WEE1
  WEE1 substrate protein remaining %: B (80%< substrate protein remaining % ≤100%)
IKZF1
  IKZF1 substrate protein remaining %: B (80%< substrate protein remaining % ≤100%)
IKZF2
  IKZF2 substrate protein remaining %: A (0% ≤ substrate protein remaining % ≤80%)
IKZF3
  IKZF3 substrate protein remaining %: B (80%< substrate protein remaining % ≤100%)
CK1α
  CK1α substrate protein remaining %: A (0% ≤ substrate protein remaining % ≤80%)
GSPT1
  GSPT1 substrate protein remaining %: B (80%< substrate protein remaining % ≤100%)

## Cc1nc(N2CCN(Cc3ccc4c(c3)CN(N3CCC(=O)NC3=O)C4=O)CC2)c2ccsc2n1 [GT-08067, 1-(5-((4-(2-methylthieno[2,3-d]pyrimidin-4-yl)piperazin-1-yl)methyl)-1-oxoisoindolin-2-yl)dihydropyrimidine-2,4(1H,3H)-dione]
WEE1
  WEE1 substrate protein remaining %: B (80%< substrate protein remaining % ≤100%)
IKZF1
  IKZF1 substrate protein remaining %: B (80%< substrate protein remaining % ≤100%)
IKZF2
  IKZF2 substrate protein remaining %: A (0% ≤ substrate protein remaining % ≤80%)
IKZF3
  IKZF3 substrate protein remaining %: B (80%< substrate protein remaining % ≤100%)
CK1α
  CK1α substrate protein remaining %: B (80%< substrate protein remaining % ≤100%)
GSPT1
  GSPT1 substrate protein remaining %: B (80%< substrate protein remaining % ≤100%)

## Cc1nc(N2CCN(Cc3ccc4c(c3)CN(N3CCC(=O)NC3=O)C4=O)CC2)c2c3c(sc2n1)CCCC3 [GT-08068, 1-(5-((4-(2-methyl-5,6,7,8-tetrahydrobenzo[4,5]thieno[2,3-d]pyrimidin-4-yl)piperazin-1-yl)methyl)-1-oxoisoindolin-2-yl)dihydropyrimidine-2,4(1H,3H)-dione]
WEE1
  WEE1 substrate protein remaining %: B (80%< substrate protein remaining % ≤100%)
IKZF1
  IKZF1 substrate protein remaining %: B (80%< substrate protein remaining % ≤100%)
IKZF2
  IKZF2 substrate protein remaining %: A (0% ≤ substrate protein remaining % ≤80%)
IKZF3
  IKZF3 substrate protein remaining %: B (80%< substrate protein remaining % ≤100%)
CK1α
  CK1α substrate protein remaining %: A (0% ≤ substrate protein remaining % ≤80%)
GSPT1
  GSPT1 substrate protein remaining %: B (80%< substrate protein remaining % ≤100%)

## O=C1CCN(N2Cc3cc(CN4CCN(c5ncnc6sc7c(c56)CCCC7)CC4)ccc3C2=O)C(=O)N1 [GT-08077, 1-(1-oxo-5-((4-(5,6,7,8-tetrahydrobenzo[4,5]thieno[2,3-d]pyrimidin-4-yl)piperazin-1-yl)methyl)isoindolin-2-yl)dihydropyrimidine-2,4(1H,3H)-dione]
WEE1
  WEE1 substrate protein remaining %: B (80%< substrate protein remaining % ≤100%)
IKZF1
  IKZF1 substrate protein remaining %: B (80%< substrate protein remaining % ≤100%)
IKZF2
  IKZF2 substrate protein remaining %: B (80%< substrate protein remaining % ≤100%)
IKZF3
  IKZF3 substrate protein remaining %: B (80%< substrate protein remaining % ≤100%)
CK1α
  CK1α substrate protein remaining %: A (0% ≤ substrate protein remaining % ≤80%)
GSPT1
  GSPT1 substrate protein remaining %: A (0% ≤ substrate protein remaining % ≤80%)

## O=C1CCN(N2Cc3cc(CN4CCN(c5ncnc6sc7c(c56)CCC7)CC4)ccc3C2=O)C(=O)N1 [GT-08079, 1-(5-((4-(6,7-dihydro-5H-cyclopenta[4,5]thieno[2,3-d]pyrimidin-4-yl)piperazin-1-yl)methyl)-1-oxoisoindolin-2-yl)dihydropyrimidine-2,4(1H,3H)-dione]
WEE1
  WEE1 substrate protein remaining %: A (0% ≤ substrate protein remaining % ≤80%)
IKZF1
  IKZF1 substrate protein remaining %: B (80%< substrate protein remaining % ≤100%)
IKZF2
  IKZF2 substrate protein remaining %: B (80%< substrate protein remaining % ≤100%)
IKZF3
  IKZF3 substrate protein remaining %: B (80%< substrate protein remaining % ≤100%)
CK1α
  CK1α substrate protein remaining %: A (0% ≤ substrate protein remaining % ≤80%)
GSPT1
  GSPT1 substrate protein remaining %: A (0% ≤ substrate protein remaining % ≤80%)

## Cc1nc(N2CCN(Cc3ccc4c(c3)CN(N3CCC(=O)NC3=O)C4=O)CC2)c2c3c(sc2n1)CCC3 [GT-08080, 1-(5-((4-(2-methyl-6,7-dihydro-5H-cyclopenta[4,5]thieno[2,3-d]pyrimidin-4-yl)piperazin-1-yl)methyl)-1-oxoisoindolin-2-yl)dihydropyrimidine-2,4(1H,3H)-dione]
WEE1
  WEE1 substrate protein remaining %: A (0% ≤ substrate protein remaining % ≤80%)
IKZF1
  IKZF1 substrate protein remaining %: B (80%< substrate protein remaining % ≤100%)
IKZF2
  IKZF2 substrate protein remaining %: B (80%< substrate protein remaining % ≤100%)
IKZF3
  IKZF3 substrate protein remaining %: B (80%< substrate protein remaining % ≤100%)
CK1α
  CK1α substrate protein remaining %: A (0% ≤ substrate protein remaining % ≤80%)
GSPT1
  GSPT1 substrate protein remaining %: A (0% ≤ substrate protein remaining % ≤80%)
